Test results as given in ChEMBL document CHEMBL5584358, “Fungal Coculture of Herpotrichia sp. and Trametes versicolor Induces Production of Diverse Metabolites with Anti-Parkinson's Neuroprotective Activity” (J Nat Prod, 2024).
Activity calls are given as the source filed them. The rule behind the calls is not given here.

Assays:
PC-12 [1] = assay: Neuroprotective activity against MPP+-induced rat PC12 cell death assessed as cell viability at 20 uM preincubated for 1 hr followed by MPP+ addition and measured after 24 hrs by CCK-8 assay (reference value: 57%); type: functional; details: time 25 hrs, read-out: Activity
PC-12 [2] = assay: Neuroprotective activity against MPP+-induced rat PC12 cell death assessed as increase in cell viability at […] preincubated for 1 hr followed by MPP+ addition and measured after 24 hrs by CCK-8 assay; type: functional, cell-based; details: time 25.0 hrs
PC-12 [3] = assay: Neuroprotective activity against MPP+-induced rat PC12 cell death assessed as upregulation of Bach2 gene expression at 1 to 10 uM preincubated for 1 hr followed by MPP+ addition and measured after 24 hrs by RNA sequencing analysis relative to control; type: functional; details: dose 1-10 µM; time 25 hrs
PC-12 [4] = assay: Neuroprotective activity against MPP+-induced rat PC12 cell death assessed as upregulation of Rps27a gene expression at 1 to 10 uM preincubated for 1 hr followed by MPP+ addition and measured after 24 hrs by RNA sequencing analysis relative to control; type: functional; details: dose 1-10 µM; time 25 hrs
PC-12 [5] = assay: Neuroprotective activity against MPP+-induced rat PC12 cell death assessed as upregulation of Scn4b gene expression at 1 to 10 uM preincubated for 1 hr followed by MPP+ addition and measured after 24 hrs by RNA sequencing analysis relative to control; type: functional; details: dose 1-10 µM; time 25 hrs
PC-12 [6] = assay: Neuroprotective activity against MPP+-induced rat PC12 cell death assessed as upregulation of Cdh1 gene expression at 1 to 10 uM preincubated for 1 hr followed by MPP+ addition and measured after 24 hrs by RNA sequencing analysis relative to control; type: functional; details: dose 1-10 µM; time 25 hrs
PC-12 [7] = assay: Neuroprotective activity against MPP+-induced rat PC12 cell death assessed as upregulation of Tars2 gene expression at 1 to 10 uM preincubated for 1 hr followed by MPP+ addition and measured after 24 hrs by RNA sequencing analysis relative to control; type: functional; details: dose 1-10 µM; time 25 hrs
PC-12 [8] = assay: Neuroprotective activity against MPP+-induced rat PC12 cell death assessed as upregulation of Mtr gene expression at 1 to 10 uM preincubated for 1 hr followed by MPP+ addition and measured after 24 hrs by RNA sequencing analysis relative to control; type: functional; details: dose 1-10 µM; time 25 hrs
PC-12 [9] = assay: Neuroprotective activity against MPP+-induced rat PC12 cell death assessed as upregulation of Cyp2d4 gene expression at 1 to 10 uM preincubated for 1 hr followed by MPP+ addition and measured after 24 hrs by RNA sequencing analysis relative to control; type: functional; details: dose 1-10 µM; time 25 hrs
PC-12 [10] = assay: Neuroprotective activity against MPP+-induced rat PC12 cell death assessed as upregulation of Nat1 gene expression at 1 to 10 uM preincubated for 1 hr followed by MPP+ addition and measured after 24 hrs by RNA sequencing analysis relative to control; type: functional; details: dose 1-10 µM; time 25 hrs
PC-12 [11] = assay: Neuroprotective activity against MPP+-induced rat PC12 cell death assessed as upregulation of Ets1 gene expression at 1 to 10 uM preincubated for 1 hr followed by MPP+ addition and measured after 24 hrs by RNA sequencing analysis relative to control; type: functional; details: dose 1-10 µM; time 25 hrs
PC-12 [12] = assay: Neuroprotective activity against MPP+-induced rat PC12 cell death assessed as upregulation of Faslg gene expression at 1 to 10 uM preincubated for 1 hr followed by MPP+ addition and measured after 24 hrs by RNA sequencing analysis relative to control; type: functional; details: dose 1-10 µM; time 25 hrs
PC-12 [13] = assay: Neuroprotective activity against MPP+-induced rat PC12 cell death assessed as upregulation of Rph3a gene expression at 1 to 10 uM preincubated for 1 hr followed by MPP+ addition and measured after 24 hrs by RNA sequencing analysis relative to control; type: functional; details: dose 1-10 µM; time 25 hrs
PC-12 [14] = assay: Neuroprotective activity against MPP+-induced rat PC12 cell death assessed as upregulation of Tnr gene expression at 1 to 10 uM preincubated for 1 hr followed by MPP+ addition and measured after 24 hrs by RNA sequencing analysis relative to control; type: functional; details: dose 1-10 µM; time 25 hrs
PC-12 [15] = assay: Neuroprotective activity against MPP+-induced rat PC12 cell death assessed as upregulation of Mmp2 gene expression at 1 to 10 uM preincubated for 1 hr followed by MPP+ addition and measured after 24 hrs by RNA sequencing analysis relative to control; type: functional; details: dose 1-10 µM; time 25 hrs
PC-12 [16] = assay: Neuroprotective activity against MPP+-induced rat PC12 cell death assessed as upregulation of Cryab gene expression at 1 to 10 uM preincubated for 1 hr followed by MPP+ addition and measured after 24 hrs by RNA sequencing analysis relative to control; type: functional; details: dose 1-10 µM; time 25 hrs
PC-12 [17] = assay: Neuroprotective activity against MPP+-induced rat PC12 cell death assessed as upregulation of Cebpd gene expression at 1 to 10 uM preincubated for 1 hr followed by MPP+ addition and measured after 24 hrs by RNA sequencing analysis relative to control; type: functional; details: dose 1-10 µM; time 25 hrs
PC-12 [18] = assay: Neuroprotective activity against MPP+-induced rat PC12 cell death assessed as downregulation of F8 gene expression at 1 to 10 uM preincubated for 1 hr followed by MPP+ addition and measured after 24 hrs by RNA sequencing analysis relative to control; type: functional; details: dose 1-10 µM; time 25 hrs
PC-12 [19] = assay: Neuroprotective activity against MPP+-induced rat PC12 cell death assessed as downregulation of Nlrp1a gene expression at 1 to 10 uM preincubated for 1 hr followed by MPP+ addition and measured after 24 hrs by RNA sequencing analysis relative to control; type: functional; details: dose 1-10 µM; time 25 hrs
PC-12 [20] = assay: Neuroprotective activity against MPP+-induced rat PC12 cell death assessed as downregulation of Dmpk gene expression at 1 to 10 uM preincubated for 1 hr followed by MPP+ addition and measured after 24 hrs by RNA sequencing analysis relative to control; type: functional; details: dose 1-10 µM; time 25 hrs
PC-12 [21] = assay: Neuroprotective activity against MPP+-induced rat PC12 cell death assessed as downregulation of Tnfrsf10b gene expression at 1 to 10 uM preincubated for 1 hr followed by MPP+ addition and measured after 24 hrs by RNA sequencing analysis relative to control; type: functional; details: dose 1-10 µM; time 25 hrs
PC-12 [22] = assay: Neuroprotective activity against MPP+-induced rat PC12 cell death assessed as downregulation of Cntf gene expression at 1 to 10 uM preincubated for 1 hr followed by MPP+ addition and measured after 24 hrs by RNA sequencing analysis relative to control; type: functional; details: dose 1-10 µM; time 25 hrs
PC-12 [23] = assay: Neuroprotective activity against MPP+-induced rat PC12 cell death assessed as downregulation of Bdnf gene expression at 1 to 10 uM preincubated for 1 hr followed by MPP+ addition and measured after 24 hrs by RNA sequencing analysis relative to control; type: functional; details: dose 1-10 µM; time 25 hrs
PC-12 [24] = assay: Neuroprotective activity against MPP+-induced rat PC12 cell death assessed as downregulation of Ikbkg gene expression at 1 to 10 uM preincubated for 1 hr followed by MPP+ addition and measured after 24 hrs by RNA sequencing analysis relative to control; type: functional; details: dose 1-10 µM; time 25 hrs
PC-12 [25] = assay: Neuroprotective activity against MPP+-induced rat PC12 cell death assessed as downregulation of Adora1 gene expression at 1 to 10 uM preincubated for 1 hr followed by MPP+ addition and measured after 24 hrs by RNA sequencing analysis relative to control; type: functional; details: dose 1-10 µM; time 25 hrs
PC-12 [26] = assay: Neuroprotective activity against MPP+-induced rat PC12 cell death assessed as downregulation of IL33 gene expression at 1 to 10 uM preincubated for 1 hr followed by MPP+ addition and measured after 24 hrs by RNA sequencing analysis relative to control; type: functional; details: dose 1-10 µM; time 25 hrs
PC-12 [27] = assay: Neuroprotective activity against MPP+-induced rat PC12 cell death assessed as downregulation of Unc13d gene expression at 1 to 10 uM preincubated for 1 hr followed by MPP+ addition and measured after 24 hrs by RNA sequencing analysis relative to control; type: functional; details: dose 1-10 µM; time 25 hrs

## C=C1CC[C@H]2C(C)(C)[C@@H](O)C[C@@H](O)[C@]2(C)[C@H]1CO
PC-12 [1]
  viability at 20 µM: 71%
PC-12 [2]
  Activity: Active
PC-12 [3]
  log2FC: >0.4
PC-12 [4]
  log2FC: >0.4
PC-12 [5]
  log2FC: >0.4
PC-12 [6]
  log2FC: >0.4
PC-12 [7]
  log2FC: >0.4
PC-12 [8]
  log2FC: >0.4
PC-12 [9]
  log2FC: >0.4
PC-12 [10]
  log2FC: >0.4
PC-12 [11]
  log2FC: >0.4
PC-12 [12]
  log2FC: >0.4
PC-12 [13]
  log2FC: >0.4
PC-12 [14]
  log2FC: >0.4
PC-12 [15]
  log2FC: >0.4
PC-12 [16]
  log2FC: >0.4
PC-12 [17]
  log2FC: >0.4
PC-12 [18]
  log2FC: >0.4
PC-12 [19]
  log2FC: >0.4
PC-12 [20]
  log2FC: >0.4
PC-12 [21]
  log2FC: >0.4
PC-12 [22]
  log2FC: >0.4
PC-12 [23]
  log2FC: >0.4
PC-12 [24]
  log2FC: >0.4
PC-12 [25]
  log2FC: >0.4
PC-12 [26]
  log2FC: >0.4
PC-12 [27]
  log2FC: >0.4
